According to patent US8048919B2, “Use of ethyl lactate as an excipient for pharmaceutical compositions” (Archer Daniels Midland Company, priority 2004, dated 2011):

Assay: Resistance of high purity ethyl lactate to peroxide formation in air (Quantofix test paper)
Format: physicochemical
Settings: for level of peroxide: 250 ml ethyl lactate + 0.3 g agent, stirred in air
Protocol: In the procedure used, 250 ml of high purity ethyl lactate containing 0.0 ppm of peroxide as measured with Quantofix™ test paper was added to each of four beakers. The first beaker served as a control and was not treated with any chemical agent. The second beaker was treated with 0.3 g of BHT. The third beaker was treated with 0.3 g of cysteine and the fourth beaker was treated with 0.3 g of methionine. […] The level of peroxide in each of the ethyl lactate samples was monitored and is reported as a function of time in Table 2.

Row | level of peroxide (time 0 minutes) [ppm] | level of peroxide (time 15 minutes) [ppm] | level of peroxide (time 30 minutes) [ppm] | level of peroxide (time 60 minutes) [ppm] | level of peroxide (time 75 minutes) | level of peroxide (time 90 minutes) | level of peroxide (time 105 minutes) [ppm] | level of peroxide (time 120 minutes) [ppm] | level of peroxide (time 150 minutes) [ppm] | level of peroxide (time 180 minutes) [ppm] | level of peroxide (time 240 minutes) | level of peroxide (time 300 minutes) [ppm] | level of peroxide (time 360 minutes) [ppm] | level of peroxide (time 1440 minutes) | effectiveness as stabilizer against peroxide generation (compared with the other compounds evaluated) | Gardner color rating (ethyl lactate stabilized with BHT, throughout the trial period) | Compound
1 | 0.0 | 0.0 | 0.0 | 0.0 | 0.0 ppm | 0.0 ppm | 0.0 | 0.0 | 0.0 | 0.0 | 0.0 ppm | 0.0 | 0.0 | 0.0 ppm | most effective | 1 | Cc1cc(C(C)(C)C)c(O)c(C(C)(C)C)c1 [BHT, butylated hydroxyl toluene]
2 | 0.0 | 0.0 | 0.0 | 0.0 | 0.0 ppm | 0.0 ppm | 0.0 | 0.0 | 0.0 | 0.0 | 0.0 ppm | 0.0 | 0.0 | 0.0-0.5 ppm |  |  | N[C@@H](CS)C(=O)O [Cysteine, cysteine]
3 | 0.0 | 0.0 | 0.0 | 0.5 | 0.5-2.0 ppm | 0.5-2.0 ppm | 2.0 | 2.0 | 2.0 | 5.0 | 2.0-5.0 ppm | 5.0 | 5.0 | 5.0 ppm |  |  | CSCC[C@H](N)C(=O)O [Methionine, methionine]
